Data reported in patent US12419947B2, “Inorganic polyatomic oxyanions for protecting against antigenic damage during pathogen inactivation for vaccine production” (priority 2016, dated 2025).

Assays:
[1] = tested on: dengue serotype 4 (DENV4); test: DENV-specific sandwich ELISA (MAbs 15A5 and 6H6) on treated DENV4; format: binding, dengue virus; conditions: for antigenicity (ELISA at 20 hrs post-inactivation): H2O2=0.01%, compound 10 μM; for ELISA signal / antigenicity with added salt during H2O2/CuCl2 inactivation: 0.01% H2O2, 1 μM CuCl2, 20 hours, vs standard conditions; for ELISA signal with added oxyanion during formaldehyde inactivation: 0.01% formaldehyde, 20 days at 37° C.; for ELISA signal with added oxyanion during BPL inactivation: 0.1% BPL
[2] = tested on: dengue serotype 4 (DENV4); test: DENV4 live virus plaque assay on Vero cells; format: cell-based, dengue virus; conditions: for rate of inactivation (viable virus at 1 hr post-inactivation): H2O2=0.01%, compound 10 μM; for virus inactivation with added salt during H2O2/CuCl2 inactivation: 0.01% H2O2, 1 μM CuCl2, 20 hours
dengue virus 3 (DENV3) = test: DENV-specific sandwich ELISA on treated DENV3; format: binding; conditions: H2O2 0.01%
DENV2 = DENV2 inactivation kinetics (PFU assay); format: cell-based, dengue virus; conditions: 3% H2O2, or 0.01% H2O2 and 1 μM CuCl2, room temperature
[3] = tested on: chikungunya virus (CHIKV); test: CHIKV-specific sandwich ELISA (retained antigenicity); format: binding
[4] = tested on: Campylobacter coli (C. coli); test: Campylobacter morphology after inactivation (Gram safranin stain); conditions: 3% H2O2 5 hours, or 0.01% H2O2 and 2 uM CuCl2
[5] = tested on: chikungunya virus (CHIKV); format: cell-based
[6] = tested on: Campylobacter coli (C. coli); test: C. coli inactivation (viable bacteria over time); format: cell-based; conditions: H2O2=0.01%, MZ=20 μM, 150 mM NaPO4
smallpox = conditions: in vivo; cited from earlier work
Listeria monocytogenes = Listeria monocytogenes inactivation (CFU/mL); format: cell-based; conditions: H2O2=0.10%, MZ=100 μM, 150 mM NaPO4
vaccinia virus (VV) = format: cell-based; conditions: H2O2=0.002%, CuCl2=1 μM, MZ=10 μM, PBS pH=7.5
Shigella dysenteriae = Shigella dysenteriae inactivation (CFU/mL); format: cell-based; conditions: H2O2=0.10%, CuCl2=10 μM, MZ=100 μM, 150 mM NaPO4
vaccinia = conditions: cited from earlier work
[7] = 0.01% formaldehyde with high oxyanion, 20 days at 37° C.
[8] = 0.1% BPL with high oxyanion, 20 hours
[9] = BEI, Na2HPO4 150 mM, 20 hours at 37° C.
[10] = 20 hours, room temperature, 150 mM NaPO4

Question: Which “antigenicity (ELISA at 20 hrs post-inactivation)” value ([1]; CuCl2=1 μM, 150 mM NaPO4) does the source give for `NNC(N)=O` [semicarbazide] here?
Answer: The value was “protection of protein antigens from oxidative damage”.

Question: What about the “rate of inactivation (viable virus at 1 hr post-inactivation)” value ([2]; CuCl2=1 μM, 150 mM NaPO4) of the same compound?
Answer: The value was “do not appear to increase the rate of inactivation”.

Question: What does the source list for `NNC(N)=S` [thiosemicarbazide]?
Answer: antigenicity (ELISA at 20 hrs post-inactivation) ([1]; CuCl2=1 μM, 150 mM NaPO4): superior antigenicity; rate of inactivation (viable virus at 1 hr post-inactivation) ([2]; CuCl2=1 μM, 150 mM NaPO4): enhancement of inactivation

Question: Which “ELISA signal / antigenicity with added salt during H2O2/CuCl2 inactivation” value ([1]; room temperature) does the source give for `[Cl-].[Cl-].[Mg+2]` [magnesium chloride, reference compound] here?
Answer: Its value is “no protective effect on antigenicity”.

Question: Which ELISA signal ([1]; standard BPL conditions: 0.1% BPL, 20 hours, room temperature) does the source give for `O=C1CCO1` [BPL, β-propiolactone, reference compound] here?
Answer: The ELISA signal was “loss of ELISA signal”.

Question: Which results are given for `NC(=S)NN=C1C(=O)Nc2ccccc21` [isatin β-thiosemicarbazone]?
Answer: antigenicity (ELISA at 20 hrs post-inactivation) ([1]; CuCl2=1 μM, 150 mM NaPO4): superior antigenicity; rate of inactivation (viable virus at 1 hr post-inactivation) ([2]; CuCl2=1 μM, 150 mM NaPO4): enhanced rates of inactivation

Question: What does the source list for `O=P1([O-])OP(=O)([O-])OP(=O)([O-])O1.[Na+].[Na+].[Na+]` [sodium trimetaphosphate]?
Answer: ELISA signal / antigenicity with added salt during H2O2/CuCl2 inactivation ([1]; room temperature): increased ELISA signals; virus inactivation with added salt during H2O2/CuCl2 inactivation [2]: completely inactivated

Question: For `[Cl][Fe]([Cl])[Cl]` [FeCl3], which “antigenicity with increasing FeCl3 concentrations” value (dengue virus 3 (DENV3)) is on record?
Answer: The value was “enhanced antigenicity”.

Question: For `O=S(=O)([O-])[O-].[Na+].[Na+]` [sodium sulfate], which “ELISA signal / antigenicity with added salt during H2O2/CuCl2 inactivation” value ([1]; room temperature) is on record?
Answer: Its value is “improved antigenicity”.

Question: And the “ELISA signal with added oxyanion during formaldehyde inactivation” value [1]?
Answer: The value was “increased ELISA signals”.

Question: And the “ELISA signal with added oxyanion during BPL inactivation” value ([1]; 20 hours, room temperature)?
Answer: Its value is “increased ELISA signals”.

Question: And the “virus inactivation with added salt during H2O2/CuCl2 inactivation” value [2]?
Answer: Its value is “complete virus inactivation”.

Question: And the virus inactivation [2, 7]?
Answer: The virus inactivation was “completely inactivated”.

Question: And the virus inactivation [2, 8]?
Answer: The virus inactivation was “completely inactivated”.

Question: Which results are given for `CCCN1C(=O)C(=NNC(N)=S)c2ccccc21` [N-propylisatin β-thiosemicarbazone]?
Answer: antigenicity (ELISA at 20 hrs post-inactivation) ([1]; CuCl2=1 μM, 150 mM NaPO4): superior antigenicity; rate of inactivation (viable virus at 1 hr post-inactivation) ([2]; CuCl2=1 μM, 150 mM NaPO4): enhanced rates of inactivation

Question: For `O=C1Nc2ccccc2C1=O` [isatin], which “antigenicity (ELISA at 20 hrs post-inactivation)” value ([1]; CuCl2=1 μM, 150 mM NaPO4) is on record?
Answer: The value was “protection of protein antigens from oxidative damage”.

Question: What about the “rate of inactivation (viable virus at 1 hr post-inactivation)” value ([2]; CuCl2=1 μM, 150 mM NaPO4) of the same compound?
Answer: Its value is “do not appear to increase the rate of inactivation”.

Question: Which “kinetics of virus inactivation versus total viral protein concentration” value (DENV2) does the source give for `OO` [H2O2, hydrogen peroxide] here?
Answer: Its value is “protein concentration-independent”.

Question: What about the “neutralizing epitopes (antigenicity)” value (yellow fever virus (YFV)) of the same compound?
Answer: The value was “severe damage to neutralizing epitopes”.

Question: What about the “antigenicity (in vitro potency testing using envelope-specific MAbs)” value ([3]; 3% H2O2 under standard conditions) of the same compound?
Answer: The value was “nearly complete loss of antigenicity”.

Question: What about the bacterial morphology [4] of the same compound?
Answer: The bacterial morphology was “substantially damaged with clear changes in morphology”.

Question: Which results are given for `O=P(O)(O)O` [Na2HPO4, sodium phosphate]?
Answer: ELISA signal / antigenicity with added salt during H2O2/CuCl2 inactivation ([1]; room temperature): increased ELISA signal; ELISA signal with added oxyanion during formaldehyde inactivation [1]: increased ELISA signals; ELISA signal with added oxyanion during BPL inactivation ([1]; 20 hours, room temperature): increased ELISA signals; ELISA signal with added oxyanion during BEI inactivation [1, 9]: increased ELISA signals; virus inactivation with added salt during H2O2/CuCl2 inactivation [2]: complete virus inactivation; virus inactivation [2, 7]: completely inactivated; virus inactivation [2, 8]: completely inactivated; kinetics of virus inactivation in presence vs absence of high Na2HPO4 ([2]; 150 mM vs 10 mM, 0.01% H2O2, 1 μM CuCl2): similar; virus inactivation [2, 9]: completely inactivated; ELISA signal with added oxyanion during H2O2/CuCl2 inactivation ([3]; 0.01% H2O2, 5 μM CuCl2, 20 hours, 150 mM Na2HPO4 with or without 3 mM Na3P3O9): increased ELISA signals; residual live virus (co-culture, estimated LOD of 100 PFU/mL) [5]: completely inactivated

Question: For `CN1C(=O)/C(=N\NC(N)=S)c2ccccc21` [methisazone, N-methyl-isatin β-thiosemicarbazone], which “inactivation rate on addition of methisazone to H2O2/CuCl2” value (from here on “inactivation rate … to H2O2/CuCl2”) [6] is on record?
Answer: The value was “substantially enhanced inactivation rates”.

Question: What about the “deaths among close contacts receiving methisazone” value (smallpox) of the same compound?
Answer: The value was “no deaths”.

Question: And the “antigenicity on addition of methisazone to dual oxidation” value [1, 10]?
Answer: The value was “maintained or significantly improved antigenicity”.

Question: And the “antigenicity, methisazone together with polyatomic oxyanions” value ([1]; H2O2=0.002%, CuCl2=1 μM, 150 mM Na2HPO4, methisazone 10 μM, 20 hours)?
Answer: Its value is “higher antigenicity than could be achieved by either approach in isolation”.

Question: And the “inactivation rate … to H2O2/CuCl2” value (Listeria monocytogenes)?
Answer: The value was “substantially enhanced inactivation rates”.

Question: And the “rate of dual-oxidation-based inactivation on addition of methisazone” value (vaccinia virus (VV))?
Answer: The value was “substantially increase the rate”.

Question: What about the “rate of dual-oxidation-based inactivation on addition of methisazone” value ([2]; H2O2=0.002%, CuCl2=1 μM, MZ=10 μM, 150 mM NaPO4) of the same compound?
Answer: Its value is “substantially increase the rate”.

Question: And the “virus inactivation by methisazone alone” value ([2]; MZ=10 μM)?
Answer: The value was “minimal impact”.

Question: What about the “increase of the rate of inactivation on addition of methisazone” value ([2]; dual oxidation, 150 mM NaPO4, stated for CHIKV and DENV4 together) of the same compound?
Answer: Its value is 10- to 20 fold.

Question: And the “inactivation rate … to H2O2/CuCl2” value (Shigella dysenteriae)?
Answer: Its value is “substantially enhanced inactivation rates”.

Question: What about the serious adverse events (vaccinia; mean initial dose 152 mg/kg, total average 809 mg/kg over 3.75 days) of the same compound?
Answer: Its serious adverse events is “lack of serious adverse events”.

Question: And the “complications of vaccinia vaccination” value (vaccinia; used prophylactically prior to vaccinia vaccination)?
Answer: Its value is “reduce complications”.

Question: And the “antigenicity on addition of methisazone to dual oxidation” value [3, 10]?
Answer: The value was “maintained or significantly improved antigenicity”.

Question: And the “retained antigenicity at 20 hrs with increasing methisazone relative to the transition metal” value ([3]; H2O2 0.02%, CuCl2 1 μM, 150 mM NaPO4)?
Answer: Its value is “improvements in both retained antigenicity”.

Question: What about the “increase of the rate of inactivation on addition of methisazone” value [5] of the same compound?
Answer: Its value is 10- to 20 fold.

Question: And the “rate of dual-oxidation-based inactivation on addition of methisazone” value [5]?
Answer: The value was “substantially increase the rate”.

Question: What about the “virus inactivation (plaque assay at 1 hr) with increasing methisazone relative to the transition metal” value [5] of the same compound?
Answer: The value was “increased virus inactivation rates”.

Question: What about the “virus inactivation by methisazone alone” value [5] of the same compound?
Answer: Its value is “minimal impact”.

Question: For `[Cl-].[Na+]` [sodium chloride, reference compound], which “ELISA signal / antigenicity with added salt during H2O2/CuCl2 inactivation” value ([1]; room temperature) is on record?
Answer: The value was “no protective effect on antigenicity”.

Question: With `O=S(=O)([O-])[O-].[Mg+2]` [magnesium sulfate] as the compound, how does the “ELISA signal / antigenicity with added salt during H2O2/CuCl2 inactivation” value ([1]; room temperature) read?
Answer: The value was “improved antigenicity”.

Question: And the “virus inactivation with added salt during H2O2/CuCl2 inactivation” value [2]?
Answer: The value was “complete virus inactivation”.

Question: With `O=P([O-])([O-])OP(=O)([O-])OP(=O)([O-])[O-].[Na+].[Na+].[Na+].[Na+].[Na+]` [sodium triphosphate] as the compound, how does the “ELISA signal / antigenicity with added salt during H2O2/CuCl2 inactivation” value ([1]; room temperature) read?
Answer: The value was “increased ELISA signals”.

Question: What about the “virus inactivation with added salt during H2O2/CuCl2 inactivation” value [2] of the same compound?
Answer: The value was “completely inactivated”.
